The values below come from patent US20250354195A1, “METHOD OF SCREENING” (UNIVERSITY OF DUNDEE, priority 2024, published 2025).

The target in this test is T1, GSK3β (Homo sapiens, UniProt P49841+Q96SW2).
T1 construct: genetically engineered using CRISPR/Cas9 technology to endogenously tag GSK3p protein with HiBiT tag at the C-terminus; host or cells: HEK293 cells, CRISPR/Cas9 knock-in of HiBiT at the endogenous GSK3B locus
In words: High throughput screening for GSK3β-HiBiT targeted degradation (Nano-Glo HiBiT Lytic luminescence). Format: cell-based. Particulars: HEK293 cells with endogenously HiBiT-tagged GSK3β, 24 h incubation, products of one-pot plate array (FIG. 1, Method A); for DC50: 0.01-30 μM, read-out: DC50 (half-maximal degradation concentration). The procedure: High throughput Screening for GSK3 β-HiBiTL: Test compounds were transferred into Echo plate (Beckman, 001-12782, Echo LDV384) using BRAVO automated liquid handling platform which serves as source plate (10 mM stocks in DMSO). Serial dilutions of the compounds were done using Echo550 liquid handler as 30 μM, 10 μM, 3 μM, 1 μM, 0.3 μM, 0.1 μM, 0.03 μM and 0.01 μM in final concentrations in assay plates. One column of each assay plate was reserved for DMSO control treatments. After compounds were serially diluted in assay plates, HEK293 cells (CRL-1573, ATCC) genetically engineered using CRISPR/Cas9 technology to endogenously tag GSK3p protein with HiBiT tag at the C-terminus (Schwinn et al., 2018, CRISPR-mediated tagging of endogenous proteins with a luminescent peptide, ACS Chem. Biol., 13(2), 467-74) were seeded at a density of 5000 cells/well in 50 μL complete media in 384-well TC-grade white plates (Perkin Elmer, Culturplate, 6007619) with the help of Multidrop Combi liquid dispenser and cells were incubated for 24 h with compounds at 37° C. in humidified incubators with 5% CO2. At the end of the treatment, equal volume of Nano-Glo HiBiT Lytic reagent (Promega N3030) supplied with Nano-Glo HiBiT Lytic substrate and LgBiT Protein were added into each well according to manufacturer's instructions, and cells were incubated on an orbital shaker for 15 seconds and for a further 15 minutes at room temperature. Luminescence signals were measured in an appropriate plate reader (PHERAstar FSX, BMG Labtech) (Dixon et al., 2016, NanoLuc complementation reporter optimized for accurate measurement of protein interactions in cells, ACS Chem. Biol., 11, 400-8). Changes in protein abundance upon compound treatment were further analysed by normalising raw luminescence values to DMSO values and fold changes were plotted using for parameter logistic regression with GraphPad Prism (10.1.2).
Furthermore, the present investigators have shown that bifunctional compounds manufactured using the method of the present disclosure may be effective in the uses of bifunctional compounds, for example as PROTACs in targeted protein degradation (TPD). […] GSK3p was targeted for degradation using a binder for GSK3p, and a binder for CRBN; the binders were comprised in molecules comprising moieties for reacting with the orthogonally reactive moieties of the linker. […] The “identifier” identifies the well of the multi-well plate that has been sampled, e.g., AHD2B-1-A1 relates to the top left well in FIG. 1. The DC50 provides an indication of the potency of the bifunctional compound in targeted degradation; Dmax provides an indication of the maximum possible degradation. The use of these metrics is further described in Flexible Fitting of PROTAC Concentration-Response Curves with Changepoint Gaussian Processes, Semenova et al., SLAS Discovery, 2021, 26, 1212-1224.

T1 sequence (P49841 whole entry): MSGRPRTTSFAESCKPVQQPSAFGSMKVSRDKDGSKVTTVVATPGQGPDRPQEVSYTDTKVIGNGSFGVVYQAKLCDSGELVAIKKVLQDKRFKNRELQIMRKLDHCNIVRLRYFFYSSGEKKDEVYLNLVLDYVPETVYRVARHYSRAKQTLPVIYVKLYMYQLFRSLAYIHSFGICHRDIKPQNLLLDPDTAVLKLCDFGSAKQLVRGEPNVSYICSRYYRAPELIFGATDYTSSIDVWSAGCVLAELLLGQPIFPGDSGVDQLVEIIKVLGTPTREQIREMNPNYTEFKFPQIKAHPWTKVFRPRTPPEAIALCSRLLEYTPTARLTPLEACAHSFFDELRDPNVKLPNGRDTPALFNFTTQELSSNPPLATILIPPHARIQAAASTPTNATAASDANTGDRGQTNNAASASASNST
T1 sequence (Q96SW2 whole entry): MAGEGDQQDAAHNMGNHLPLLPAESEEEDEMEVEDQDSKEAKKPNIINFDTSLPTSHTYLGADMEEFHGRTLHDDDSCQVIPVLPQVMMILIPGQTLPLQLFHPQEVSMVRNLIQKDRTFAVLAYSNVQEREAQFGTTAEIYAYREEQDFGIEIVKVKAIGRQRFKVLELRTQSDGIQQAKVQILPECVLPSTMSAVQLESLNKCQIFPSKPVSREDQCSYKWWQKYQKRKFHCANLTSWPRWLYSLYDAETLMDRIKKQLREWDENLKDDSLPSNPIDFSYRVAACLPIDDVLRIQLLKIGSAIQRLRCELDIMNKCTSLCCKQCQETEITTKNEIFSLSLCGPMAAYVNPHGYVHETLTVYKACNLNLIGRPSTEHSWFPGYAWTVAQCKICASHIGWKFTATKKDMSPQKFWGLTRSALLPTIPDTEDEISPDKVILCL
T1 sequence (Q16531 whole entry partner): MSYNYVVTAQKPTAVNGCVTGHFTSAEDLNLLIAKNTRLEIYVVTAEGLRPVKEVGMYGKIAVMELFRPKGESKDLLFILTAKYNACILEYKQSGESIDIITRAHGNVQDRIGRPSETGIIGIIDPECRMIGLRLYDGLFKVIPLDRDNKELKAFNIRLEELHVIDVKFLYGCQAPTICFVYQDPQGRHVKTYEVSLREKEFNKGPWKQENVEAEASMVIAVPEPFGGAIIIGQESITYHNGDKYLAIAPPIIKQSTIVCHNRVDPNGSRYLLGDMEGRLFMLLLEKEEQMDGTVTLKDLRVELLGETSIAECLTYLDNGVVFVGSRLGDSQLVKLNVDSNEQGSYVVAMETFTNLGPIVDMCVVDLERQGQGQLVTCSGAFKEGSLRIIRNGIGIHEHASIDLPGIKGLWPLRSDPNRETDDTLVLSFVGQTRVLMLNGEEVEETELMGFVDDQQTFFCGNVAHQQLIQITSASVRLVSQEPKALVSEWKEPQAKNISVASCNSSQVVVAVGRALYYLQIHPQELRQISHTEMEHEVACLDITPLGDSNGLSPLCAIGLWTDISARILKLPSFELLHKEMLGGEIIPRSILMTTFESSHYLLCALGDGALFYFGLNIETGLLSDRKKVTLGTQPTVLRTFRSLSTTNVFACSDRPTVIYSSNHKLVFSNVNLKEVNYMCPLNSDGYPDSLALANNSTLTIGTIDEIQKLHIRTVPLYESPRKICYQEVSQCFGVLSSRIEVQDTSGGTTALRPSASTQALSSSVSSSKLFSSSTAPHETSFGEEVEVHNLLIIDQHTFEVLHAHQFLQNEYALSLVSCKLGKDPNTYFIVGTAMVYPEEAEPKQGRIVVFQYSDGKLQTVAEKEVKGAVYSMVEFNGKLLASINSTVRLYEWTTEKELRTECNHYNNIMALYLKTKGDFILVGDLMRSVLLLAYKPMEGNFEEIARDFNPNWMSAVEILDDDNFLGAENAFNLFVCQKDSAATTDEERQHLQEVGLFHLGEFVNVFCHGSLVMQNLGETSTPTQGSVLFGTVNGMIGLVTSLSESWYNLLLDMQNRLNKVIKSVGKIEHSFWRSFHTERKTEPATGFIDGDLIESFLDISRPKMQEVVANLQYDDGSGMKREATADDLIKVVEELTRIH

With `COc1ccc(-c2ocnc2C(=O)NCCCn2cc(CCCN3CCN(Cc4ccc(C(=O)NC5CCC(=O)NC5=O)c(F)c4)CC3)nn2)cc1Cl` (centres unmarked) [AHD2B-1-C12], the DC50 was greater than 10 µM and the “Dmax (maximal effect)” value was less than 30%.
The corresponding values for `COc1ccc(-c2ocnc2C(=O)NCCCn2cc(CCCCN3CCN(Cc4ccc5c(N6CCC(=O)NC6=O)nn(C)c5c4)CC3)nn2)cc1Cl` [AHD2B-1-D1] are 2.1 µM and 49%.
`COc1ccc(-c2ocnc2C(=O)NCCCn2cc(-c3ccc(CN4CCN(Cc5ccc6c(N7CCC(=O)NC7=O)nn(C)c6c5)CC4)cn3)nn2)cc1Cl` [AHD2B-1-D2]: the DC50 is less than 0.25 µM and the “Dmax (maximal effect)” value came out at 63%.
Consider `COc1ccc(-c2ocnc2C(=O)NCCCn2cc(CCCOc3ccc(CN4CCN(Cc5ccc6c(N7CCC(=O)NC7=O)nn(C)c6c5)CC4)cc3)nn2)cc1Cl` [AHD2B-1-D4], for which the DC50 was less than 0.25 µM and the “Dmax (maximal effect)” value is listed as 41%.
The corresponding values for `COc1ccc(-c2ocnc2C(=O)NCCCn2cc(COC3CCN(Cc4ccc5c(N6CCC(=O)NC6=O)nn(C)c5c4)CC3)nn2)cc1Cl` [AHD2B-1-D5] are 0.55 µM and 35%.
As to `COc1ccc(-c2ocnc2C(=O)NCCCn2cc(CCCCN3CCN(Cc4ccc(C(=O)NC5CCC(=O)NC5=O)nc4)CC3)nn2)cc1Cl` (centres unmarked) [AHD2B-1-F1], the DC50 was greater than 10 µM and the “Dmax (maximal effect)” value is less than 30%.
Take `COc1ccc(-c2ocnc2C(=O)NCCCn2cc(-c3ccc(CN4CCN(Cc5ccc(C(=O)NC6CCC(=O)NC6=O)nc5)CC4)cn3)nn2)cc1Cl` (centres unmarked) [AHD2B-1-F2]: the DC50 was greater than 10 µM and the “Dmax (maximal effect)” value is recorded as less than 30%.
Take `COc1ccc(-c2ocnc2C(=O)NCCCn2cc(COc3ccc(CN4CCN(Cc5ccc(C(=O)NC6CCC(=O)NC6=O)nc5)CC4)cc3)nn2)cc1Cl` (centres unmarked) [AHD2B-1-F3]: the DC50 is greater than 10 µM and the “Dmax (maximal effect)” value is reported as less than 30%.
In the case of `COc1ccc(-c2ocnc2C(=O)NCCCn2cc(CCCOc3ccc(CN4CCN(Cc5ccc(C(=O)NC6CCC(=O)NC6=O)nc5)CC4)cc3)nn2)cc1Cl` (centres unmarked) [AHD2B-1-F4], the DC50 was found to be 0.25 µM and the “Dmax (maximal effect)” value is listed as 32%.
`COc1ccc(-c2ocnc2C(=O)NCCCn2cc(COC3CCN(Cc4ccc(C(=O)NC5CCC(=O)NC5=O)nc4)CC3)nn2)cc1Cl` (centres unmarked) [AHD2B-1-F5]: the DC50 is greater than 10 µM and the “Dmax (maximal effect)” value is reported as less than 30%.
Take `COc1ccc(-c2ocnc2C(=O)NCCCn2cc(COc3ccc(CN4CCC5(C4)CN(Cc4ccc(C(=O)NC6CCC(=O)NC6=O)nc4)C5)cc3)nn2)cc1Cl` (centres unmarked) [AHD2B-1-F6]: the DC50 was 1.1 µM and the “Dmax (maximal effect)” value amounted to 34%.
The corresponding values for `COc1ccc(-c2ocnc2C(=O)NCCCn2cc(CCCCCN3CCN(Cc4ccc(C(=O)NC5CCC(=O)NC5=O)nc4)CC3)nn2)cc1Cl` (centres unmarked) [AHD2B-1-F7] are greater than 10 µM and less than 30%.
`COc1ccc(-c2ocnc2C(=O)NCCCn2cc(-c3cccc(CN4CCN(Cc5ccc(C(=O)NC6CCC(=O)NC6=O)nc5)CC4)n3)nn2)cc1Cl` (centres unmarked) [AHD2B-1-F8]: the DC50 is greater than 10 µM and the “Dmax (maximal effect)” value is reported as less than 30%.
Turning to `COc1ccc(-c2ocnc2C(=O)NCCCn2cc(CCCCCN3CCCN(Cc4ccc(C(=O)NC5CCC(=O)NC5=O)nc4)CC3)nn2)cc1Cl` (centres unmarked) [AHD2B-1-F9], the DC50 was greater than 10 µM and the “Dmax (maximal effect)” value is less than 30%.
With `COc1ccc(-c2ocnc2C(=O)NCCCn2cc(COCCOCCN3CCN(Cc4ccc(C(=O)NC5CCC(=O)NC5=O)nc4)CC3)nn2)cc1Cl` (centres unmarked) [AHD2B-1-F10], the DC50 was greater than 10 µM and the “Dmax (maximal effect)” value is less than 30%.
As to `COc1ccc(-c2ocnc2C(=O)NCCCn2cc(COc3ccc(CN4CC5(C4)CN(Cc4ccc(C(=O)NC6CCC(=O)NC6=O)nc4)C5)cc3)nn2)cc1Cl` (centres unmarked) [AHD2B-1-F11], the DC50 is greater than 10 µM and the “Dmax (maximal effect)” value is listed as less than 30%.
For `COc1ccc(-c2ocnc2C(=O)NCCCn2cc(CCCN3CCN(Cc4ccc(C(=O)NC5CCC(=O)NC5=O)nc4)CC3)nn2)cc1Cl` (centres unmarked) [AHD2B-1-F12], the DC50 is greater than 10 µM and the “Dmax (maximal effect)” value was less than 30%.
With `COc1ccc(-c2ocnc2C(=O)NCCCn2cc(CCCCN3CCN(Cc4ccc(N5CCC(=O)NC5=O)cc4)CC3)nn2)cc1Cl` [AHD2B-1-G1], the DC50 was greater than 10 µM and the “Dmax (maximal effect)” value is less than 30%.
The matching figures for `COc1ccc(-c2ocnc2C(=O)NCCCn2cc(-c3ccc(CN4CCN(Cc5ccc(N6CCC(=O)NC6=O)cc5)CC4)cn3)nn2)cc1Cl` [AHD2B-1-G2]: greater than 10 µM and less than 30%.
Turning to `COc1ccc(-c2ocnc2C(=O)NCCCn2cc(COc3ccc(CN4CCN(Cc5ccc(N6CCC(=O)NC6=O)cc5)CC4)cc3)nn2)cc1Cl` [AHD2B-1-G3], the DC50 was greater than 10 µM and the “Dmax (maximal effect)” value was less than 30%.
Take `COc1ccc(-c2ocnc2C(=O)NCCCn2cc(CCCOc3ccc(CN4CCN(Cc5ccc(N6CCC(=O)NC6=O)cc5)CC4)cc3)nn2)cc1Cl` [AHD2B-1-G4]: the DC50 is greater than 10 µM and the “Dmax (maximal effect)” value is listed as less than 30%.
The corresponding values for `COc1ccc(-c2ocnc2C(=O)NCCCn2cc(COC3CCN(Cc4ccc(N5CCC(=O)NC5=O)cc4)CC3)nn2)cc1Cl` [AHD2B-1-G5] are greater than 10 µM and less than 30%.
In the case of `COc1ccc(-c2ocnc2C(=O)NCCCn2cc(COc3ccc(CN4CCC5(C4)CN(Cc4ccc(N6CCC(=O)NC6=O)cc4)C5)cc3)nn2)cc1Cl` [AHD2B-1-G6], the DC50 is greater than 10 µM and the “Dmax (maximal effect)” value was less than 30%.
Regarding `COc1ccc(-c2ocnc2C(=O)NCCCn2cc(CCCCCN3CCN(Cc4ccc(N5CCC(=O)NC5=O)cc4)CC3)nn2)cc1Cl` [AHD2B-1-G7], the DC50 is greater than 10 µM and the “Dmax (maximal effect)” value was less than 30%.
On to `COc1ccc(-c2ocnc2C(=O)NCCCn2cc(-c3cccc(CN4CCN(Cc5ccc(N6CCC(=O)NC6=O)cc5)CC4)n3)nn2)cc1Cl` [AHD2B-1-G8], for which the DC50 was greater than 10 µM and the “Dmax (maximal effect)” value is on record as less than 30%.
For `COc1ccc(-c2ocnc2C(=O)NCCCn2cc(CCCCCN3CCCN(Cc4ccc(N5CCC(=O)NC5=O)cc4)CC3)nn2)cc1Cl` [AHD2B-1-G9], the DC50 is greater than 10 µM and the “Dmax (maximal effect)” value was less than 30%.
Take `COc1ccc(-c2ocnc2C(=O)NCCCn2cc(COCCOCCN3CCN(Cc4ccc(N5CCC(=O)NC5=O)cc4)CC3)nn2)cc1Cl` [AHD2B-1-G10]: the DC50 was greater than 10 µM and the “Dmax (maximal effect)” value was less than 30%.
`COc1ccc(-c2ocnc2C(=O)NCCCn2cc(CCCN3CCN(Cc4ccc(N5CCC(=O)NC5=O)cc4)CC3)nn2)cc1Cl` [AHD2B-1-G12]: the DC50 is greater than 10 µM and the “Dmax (maximal effect)” value is less than 30%.
